Where a SMILES comes first, the peptide text is derived from it. The star is where a group is joined. Cbz = O=C(OCc1ccccc1)*; CH2F = FC*
System: AOM/DSS induced colitis/CAC
Assay: AOM/DSS induced colitis/CAC model
Format: in vivo, C57BL/6J mice
Settings: for CAC pathology (blinded 4-point histological score) / total tumor volume (in words): day 63, vs vehicle control
Method: A mice colony generated from C57BL/6J mice (Jackson Laboratories) was maintained in the University of Hawaii vivarium. The mouse AOM/DSS induced colitis/CAC model was adapted from a previously described protocol (Fenouille, N. et al. J. Pathol. 227, 118-129, 2012). In brief, 8-10 wk old male mice were injected with AOM (A5486, Sigma) (12 mg/kg) on day 0 and were then treated with three 5 day cycles of 2% DSS (CAS#9011-18-1; MP Biomedicals, Santa Ana, Calif.) in drinking water alternated with regular water over 63 days. Mice in the intervention group were interperitonal injected 5 days per week with 0.75 mg/kg calpain-2 inhibitor (Calpain Inhibitor IV, zLLY-CH2F; Millipore EMD part number 208724) beginning on day 8 and then throughout the entire protocol. Control mice were injected with AOM on day 0 and received regular drinking water throughout the protocol. All animal protocols were approved by the University of Hawaii Institutional Animal Care and Use Committee.
Bone marrow derived macrophages (BMDM) were prepared as previously described by methods known to those skilled in the art. On day 5 of culture, 2×10^6 BMDM were seeded in 6-well plates and the following day were primed for 18 h with TNFα (20 ng/mL), followed by 1 h stimulation with E. faecalis (1 μg/mL; ATCC). Stimulation with E. faecalis was conducted in the presence of the zLLY-CH2F calpain-2 inhibitor (20 μg/mL) or DMSO as a control. Media was removed from treated BMDM, centrifuged at 300×g for 5 min and supernatent analyzed using the Cytometric Bead Array Mouse Inflammation Kit (BD Biosciences, San Jose, Calif.). Cytokine data were analyzed using Flowjo software (Ashland, Oreg.) and GraphPad Prism version 4.0 (GraphPad, La Jolla, Calif.). Cell pellets were lysed and analyzed for IκB and NFκB by Western blot as previously described (Miyazaki, T. et al. Journal of Atherosclerosis and Thrombosis 20, 228-237, 2013). In other experiments, mouse CT-26.WT and human HT-29 colon cancer cells were plated in 96-well plates at 10^3 cells/well with 20 μg/mL inhibitor or DMSO, followed by analyses for IκB and NFκB by Western blot as described above for BMDM. For proliferation assays, fresh media with 20 μg/mL inhibitor or DMSO were added every 2 d. Each day 4 wells were quantified using Celltiter MTS reagent (Promega) and the resulting signal was used to generate a proliferation curve. Calpain activity was measured using a Calpain activity assay kit (BioVision, Inc., Milpitas, Calif.) as previously described. Colons were harvested on day 4 and calpain activity measured. Enzyme-linked immunosorbant assay (ELISA) analyses of cecum hemoglobin has been previously described (Miyazaki, T. et al. Journal of Atherosclerosis and Thrombosis 20, 228-237, 2013).
On day 63, colons were dissected, cut longitudinally, and then were spread out on clear plastic. The colons were washed with PBS using transfer pipettes and images captured using an Infinity 2 microscope mounted camera (Lumenara, Madrid, Spain) in line with a Stemi 2000-C dissecting scope (Zeiss, Jena, Germany). Separate images were assembled into continuous colon images using Photoshop software (Adobe Systems Inc.). For histology, colon tissues were washed with PBS and fixed in 10% buffered formalin. Standard H&E staining of paraffin-embedded tissue samples was conducted as previously described (Leloup, L. & Wells, A., Expert Opinion on Therapeutic Targets 15, 309-323, 2011). Five H&E stained sections from each mouse were blindly scored for colitis pathology as previously described (Liu, T., Mendes, D. E. & Berkman, C. E. Int. J. Oncol. 44, 467-472, 2014). […]

With `CC(C)C[C@H](NC(=O)OCc1ccccc1)C(=O)N[C@@H](CC(C)C)C(=O)N[C@@H](Cc1ccc(O)cc1)C(=O)CF` [zLLY-CH2F, Z-LLY-CH2F] (Cbz-Leu-Leu-Tyr-CH2F) the “weight recovery after each administration of DSS” value (0.75 mg/kg i.p. from day 8, vs vehicle control) was “significant increase”, the “average number of tumors/mouse” value (day 63) was 2 tumors/mouse and the “hemoglobin in cecums by ELISA (bloody diarrhea)” value (day 63, 0.75 mg/kg i.p., vs vehicle control) was “significantly lower”. The “total tumor volume reduced by” value (day 63, i.p. 5 days on/2 days off from day 8, vs vehicle control) was 70%, the “CAC pathology (blinded 4-point histological score)” value was “significantly lower” and the “total tumor volume (in words)” value was “significantly lower”. The “CAC pathology (blinded 4-point histological score)” value (listed as calpain-2 inhibitor) was “significantly alleviated”, the “total tumor volume (in words)” value (listed as calpain-2 inhibitor) was “significant reduction” and the “total tumor volume (in words)” value (listed as m-calpain inhibitor) was “very significant tumor reduction”. The “colitis pathology and inflammatory infiltration (histology)” value (day 63 colon, vs vehicle control) was “significant decrease”.

Source: patent publication US20160279187A1, “CALPAIN INHIBITORS FOR IBD AND COLORECTAL CANCER TREATMENT” (UNIVERSITY OF HAWAII, priority 2013, published 2016)
